Data from patent publication US20230002357A1, “7-PYRIMIDINE-2-YL-OXY-INDAZOLE DERIVATIVES AND THEIR USE AS HERBICIDES” (SYNGENTA CROP PROTECTION AG, priority 2019, published 2023).

Assays:
Format in all cases: in vivo
Conditions in all cases: 250 g/ha, evaluated after 13 days
IPOHE [1] = test: Pre-emergence Test, glasshouse, IPOHE
Method in brief: (§1)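 Spray: 250 g/ha (unless stated), acetone/water 50:50 + 0.5% Tween 20; pre-em 1 d, post-em 8 d after sowing. Glasshouse 24/16 °C, 14 h light, 65% RH, watered twice daily. Damage read at 13 d on 5-point scale.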

Setaria faberi (SETFA) [2] = test: Pre-emergence Test, glasshouse, SETFA
Method in brief: as §1

IPOHE [3] = test: Post-emergence Test, glasshouse, IPOHE
Method in brief: as §1

[4] = test system: Amaranthus retoflexus (AMARE); test: Post-emergence Test, glasshouse, AMARE
Method in brief: as §1

[5] = test system: Amaranthus retoflexus (AMARE); test: Pre-emergence Test, glasshouse, AMARE
Method in brief: as §1

[6] = test system: Echinochloa crus-galli (ECHCG); test: Pre-emergence Test, glasshouse, ECHCG
Method in brief: as §1

ABUTH [7] = test: Pre-emergence Test, glasshouse, ABUTH
Method in brief: as §1

Setaria faberi (SETFA) [8] = test: Post-emergence Test, glasshouse, SETFA
Method in brief: as §1

[9] = test system: Echinochloa crus-galli (ECHCG); test: Post-emergence Test, glasshouse, ECHCG
Method in brief: as §1

ABUTH [10] = test: Post-emergence Test, glasshouse, ABUTH
Method in brief: as §1

Compound	percentage damage caused to the plant, five-point scale, IPOHE (IPOHE [1])	percentage damage caused to the plant, five-point scale, SETFA (Setaria faberi (SETFA) [2])	percentage damage caused to the plant, five-point scale, IPOHE (IPOHE [3])	percentage damage caused to the plant, five-point scale, AMARE [4]	percentage damage caused to the plant, five-point scale, AMARE [5]	percentage damage caused to the plant, five-point scale, ECHCG [6]	percentage damage caused to the plant, five-point scale, ABUTH (ABUTH [7])	percentage damage caused to the plant, five-point scale, SETFA (Setaria faberi (SETFA) [8])	percentage damage caused to the plant, five-point scale, ECHCG [9]	percentage damage caused to the plant, five-point scale, ABUTH (ABUTH [10])
FC(F)(F)CCCn1nnc2cc(Cl)cc(Oc3ncc(Cl)cn3)c21 [Compound 1.050]	1 (1=0-20%)	1 (1=0-20%)	3 (3=41-60%)	5 (5=81-100%)	1 (1=0-20%)	1 (1=0-20%)	1 (1=0-20%)	1 (1=0-20%)	1 (1=0-20%)	2 (2=21-40%)
CCCCCn1nc(Cl)c2cccc(Oc3ncc(Cl)cn3)c21 [Compound 1.055]	1 (1=0-20%)	4 (4=61-80%)	2 (2=21-40%)	4 (4=61-80%)	4 (4=61-80%)	4 (4=61-80%)	1 (1=0-20%)	3 (3=41-60%)	3 (3=41-60%)	3 (3=41-60%)
CCCn1nc(Cl)c2cccc(Oc3ncc(Cl)cn3)c21 [Compound 1.061]	1 (1=0-20%)	5 (5=81-100%)	2 (2=21-40%)	4 (4=61-80%)	3 (3=41-60%)	4 (4=61-80%)	1 (1=0-20%)	2 (2=21-40%)	2 (2=21-40%)	2 (2=21-40%)
C=CCn1nc(Cl)c2cccc(Oc3ncc(Cl)cn3)c21 [Compound 1.065]	1 (1=0-20%)	4 (4=61-80%)	2 (2=21-40%)	4 (4=61-80%)	2 (2=21-40%)	3 (3=41-60%)	2 (2=21-40%)	2 (2=21-40%)	2 (2=21-40%)	2 (2=21-40%)
COc1cnc(Oc2cccc3c(Cl)nn(CCCC(F)(F)F)c23)nc1 [Compound 1.048]	1 (1=0-20%)	5 (5=81-100%)	4 (4=61-80%)	5 (5=81-100%)	4 (4=61-80%)	4 (4=61-80%)	2 (2=21-40%)	3 (3=41-60%)	3 (3=41-60%)	4 (4=61-80%)
N#Cc1cc(Cl)cnc1Oc1cc(Cl)cc2cnn(CCCC(F)(F)F)c12 [Compound 1.017]	1 (1=0-20%)	1 (1=0-20%)	1 (1=0-20%)	4 (4=61-80%)	1 (1=0-20%)	1 (1=0-20%)	1 (1=0-20%)	1 (1=0-20%)	1 (1=0-20%)	1 (1=0-20%)
